According to ChEMBL document CHEMBL1132901, “Synthesis and structure-activity relationships of quaternary ammonium cephalosporins with 3-pyrazolylpyridinium derivatives” (2000):
In brackets after ≈: the same amount, converted by molar mass.

How the values were obtained:
Streptococcus pyogenes [1] = assay: In vitro antimicrobial activity against Streptococcus pyogenes SG 511; type: functional
Enterococcus faecium = assay: In vitro antimicrobial activity against Streptococcus faecium MD 8b; type: functional
Enterobacter cloacae [2] = assay: In vitro antimicrobial activity against Enterobacter cloacae P99; type: functional
Escherichia coli [3] = assay: In vitro antimicrobial activity against Escherichia coli 1507E; type: functional
Escherichia coli [4] = assay: In vitro antimicrobial activity against Escherichia coli TEM; type: functional
Staphylococcus aureus [5] = assay: In vitro antimicrobial activity against Staphylococcus aureus 285; type: functional
Pseudomonas aeruginosa [6] = assay: In vitro antimicrobial activity against Pseudomonas aeruginosa 9027; type: functional
Streptococcus pyogenes [7] = assay: Compound has been evaluated for in vitro antimicrobial activity against Streptococcus pyogenes A 308; type: functional
Escherichia coli [8] = assay: In vitro antimicrobial activity against Escherichia coli DC 2; type: functional
Pseudomonas aeruginosa [9] = assay: In vitro antimicrobial activity against Pseudomonas aeruginosa 1592 E; type: functional
Staphylococcus aureus [10] = assay: In vitro antimicrobial activity against Staphylococcus aureus 503; type: functional
Staphylococcus aureus [11] = assay: In vitro antimicrobial activity against Methicillin resistant Staphylococcus aureus (MRSA); type: functional
Escherichia coli [12] = assay: In vitro antimicrobial activity against Escherichia coli DC 0; type: functional
Salmonella typhimurium = assay: In vitro antimicrobial activity against Salmonella Typhimurium; type: functional, Salmonella enterica subsp. enterica serovar Typhimurium; conditions: Salmonella enterica
Pseudomonas aeruginosa [13] = assay: In vitro antimicrobial activity against Pseudomonas aeruginosa 1771; type: functional
Streptococcus pyogenes [14] = assay: In vitro antimicrobial activity against Streptococcus pyogenes 77A; type: functional
Enterobacter cloacae [15] = assay: In vitro antimicrobial activity against Enterobacter 1321 E; type: functional
Escherichia coli [16] = assay: In vitro antimicrobial activity against Escherichia coli 055; type: functional
Klebsiella aerogenes = assay: In vitro antimicrobial activity against Klebsiella aerogenes 1522 E; type: functional
Pseudomonas aeruginosa [17] = assay: In vitro antimicrobial activity against Pseudomonas aeruginosa 1771 M; type: functional
Klebsiella oxytoca = assay: In vitro antimicrobial activity against Klebsiella oxytoca 1082; type: functional
Streptococcus pyogenes [18] = assay: In vitro antimicrobial activity against Streptococcus pyogenes A 308; type: functional

MIC (Streptococcus pyogenes [18]) [mg/L] | SMILES | MIC (Streptococcus pyogenes [1]) [mg/L] | MIC (Enterococcus faecium) [mg/L] | MIC (Enterobacter cloacae [2]) [mg/L] | MIC (Escherichia coli [3]) [mg/L] | MIC (Escherichia coli [4]) [mg/L] | MIC (Staphylococcus aureus [5]) [mg/L] | MIC (Pseudomonas aeruginosa [6]) [mg/L] | MIC (Escherichia coli [8]) [mg/L] | MIC (Pseudomonas aeruginosa [9]) [mg/L] | MIC (Staphylococcus aureus [10]) [mg/L] | MIC (Escherichia coli [12]) [mg/L] | MIC (Salmonella typhimurium) [mg/L] | MIC (Pseudomonas aeruginosa [13]) [mg/L] | MIC (Streptococcus pyogenes [14]) [mg/L] | MIC (Enterobacter cloacae [15]) [mg/L] | MIC (Escherichia coli [16]) [mg/L] | MIC (Klebsiella aerogenes) [mg/L] | MIC (Pseudomonas aeruginosa [17]) [mg/L] | MIC (Klebsiella oxytoca) [mg/L] | also measured
0.025 (≈ 0.0438 µM) | CO/N=C(/C(=O)N[C@@H]1C(=O)N2C(C(=O)[O-])=C(C[n+]3cccc(-c4cc(CO)[nH]n4)c3)CS[C@H]12)c1csc(N)n1 | 1.56 (≈ 2.74 µM) | 3.12 (≈ 5.48 µM) | > 12.5 | 0.098 (≈ 0.172 µM) | 0.195 (≈ 0.342 µM) | 1.56 (≈ 2.74 µM) | 6.25 (≈ 11 µM) | 0.025 (≈ 0.0438 µM) | 3.12 (≈ 5.48 µM) | 0.391 (≈ 0.685 µM) | 0.049 (≈ 0.0859 µM) | 0.098 (≈ 0.172 µM) | 1.56 (≈ 2.74 µM) | 0.013 (≈ 0.0228 µM) | 0.049 (≈ 0.0859 µM) | 0.049 (≈ 0.0859 µM) | 0.049 (≈ 0.0859 µM) | 0.391 (≈ 0.685 µM) | 3.12 (≈ 5.48 µM) | 
0.049 (≈ 0.0906 µM) | CO/N=C(/C(=O)N[C@@H]1C(=O)N2C(C(=O)[O-])=C(C[n+]3cccc(-c4cc[nH]n4)c3)CS[C@H]12)c1csc(N)n1 | 3.12 (≈ 5.78 µM) | 6.25 (≈ 11.6 µM) | > 25 | 0.195 (≈ 0.361 µM) | 0.195 (≈ 0.361 µM) | 3.12 (≈ 5.78 µM) | 25 (≈ 46.2 µM) | 0.049 (≈ 0.0906 µM) | 12.5 (≈ 23.1 µM) | 0.781 (≈ 1.44 µM) | 0.098 (≈ 0.181 µM) | 0.195 (≈ 0.361 µM) | 6.25 (≈ 11.6 µM) | 0.025 (≈ 0.0462 µM) | 0.098 (≈ 0.181 µM) | 0.049 (≈ 0.0906 µM) | 0.098 (≈ 0.181 µM) | 3.12 (≈ 5.78 µM) | 6.25 (≈ 11.6 µM) | 
0.049 (≈ 0.0838 µM) | CO/N=C(/C(=O)N[C@@H]1C(=O)N2C(C(=O)[O-])=C(C[n+]3cccc(-c4cc(CO)nn4C)c3)CS[C@H]12)c1csc(N)n1 | 3.12 (≈ 5.35 µM) | 6.25 (≈ 10.7 µM) | > 25 | 0.098 (≈ 0.168 µM) | 0.195 (≈ 0.334 µM) | 3.12 (≈ 5.35 µM) | 25 (≈ 42.8 µM) | 0.049 (≈ 0.0838 µM) | 12.5 (≈ 21.4 µM) | 0.781 (≈ 1.34 µM) | 0.049 (≈ 0.0838 µM) | 0.195 (≈ 0.334 µM) | 3.12 (≈ 5.35 µM) | 0.025 (≈ 0.0428 µM) | 0.049 (≈ 0.0838 µM) | 0.049 (≈ 0.0838 µM) | 0.098 (≈ 0.168 µM) | 0.391 (≈ 0.669 µM) | 6.25 (≈ 10.7 µM) | 

Second part, the compound before the results:

SMILES | MIC (Streptococcus pyogenes [18]) [mg/L] | MIC (Streptococcus pyogenes [1]) [mg/L] | MIC (Enterococcus faecium) [mg/L] | MIC (Enterobacter cloacae [2]) [mg/L] | MIC (Escherichia coli [3]) [mg/L] | MIC (Escherichia coli [4]) [mg/L] | MIC (Staphylococcus aureus [5]) [mg/L] | MIC (Pseudomonas aeruginosa [6]) [mg/L] | MIC (Escherichia coli [8]) [mg/L] | MIC (Pseudomonas aeruginosa [9]) [mg/L] | MIC (Staphylococcus aureus [10]) [mg/L] | MIC (Escherichia coli [12]) [mg/L] | MIC (Salmonella typhimurium) [mg/L] | MIC (Pseudomonas aeruginosa [13]) [mg/L] | MIC (Streptococcus pyogenes [14]) [mg/L] | MIC (Enterobacter cloacae [15]) [mg/L] | MIC (Escherichia coli [16]) [mg/L] | MIC (Klebsiella aerogenes) [mg/L] | MIC (Pseudomonas aeruginosa [17]) [mg/L] | MIC (Klebsiella oxytoca) [mg/L] | also measured
CO/N=C(/C(=O)NC1C(=O)N2C(C(=O)[O-])=C(C[n+]3cccc4c3CCC4)CSC12)c1csc(N)n1 (stereo not drawn) |  | 0.391 (≈ 0.76 µM) | 1.56 (≈ 3.04 µM) | 3.12 (≈ 6.07 µM) | 0.025 (≈ 0.0486 µM) | 0.049 (≈ 0.0952 µM) | 0.781 (≈ 1.52 µM) | 3.12 (≈ 6.07 µM) | 0.013 (≈ 0.0253 µM) | 1.56 (≈ 3.04 µM) | 0.098 (≈ 0.19 µM) | 0.013 (≈ 0.0253 µM) | 0.025 (≈ 0.0486 µM) | 0.781 (≈ 1.52 µM) | 0.007 (≈ 0.0136 µM) | 0.013 (≈ 0.0253 µM) | 0.025 (≈ 0.0486 µM) | 0.025 (≈ 0.0486 µM) | 0.195 (≈ 0.379 µM) | 1.56 (≈ 3.04 µM) | MIC (Streptococcus pyogenes [7]): 0.007 mg/L (≈ 0.0136 µM); MIC (Staphylococcus aureus [11]): 25 mg/L (≈ 48.6 µM)
CO/N=C(/C(=O)N[C@@H]1C(=O)N2C(C(=O)[O-])=C(C[n+]3cccc(-c4cc(CO)nn4CCO)c3)CS[C@H]12)c1csc(N)n1 | 0.049 (≈ 0.0797 µM) | 6.25 (≈ 10.2 µM) | 12.5 (≈ 20.3 µM) | > 50 | 0.391 (≈ 0.636 µM) | 0.781 (≈ 1.27 µM) | 6.25 (≈ 10.2 µM) | 25 (≈ 40.7 µM) | 0.098 (≈ 0.159 µM) | 12.5 (≈ 20.3 µM) | 1.56 (≈ 2.54 µM) | 0.195 (≈ 0.317 µM) | 0.391 (≈ 0.636 µM) | 6.25 (≈ 10.2 µM) | 0.049 (≈ 0.0797 µM) | 0.098 (≈ 0.159 µM) | 0.098 (≈ 0.159 µM) | 0.195 (≈ 0.317 µM) | 0.781 (≈ 1.27 µM) | 12.5 (≈ 20.3 µM) | MIC (Staphylococcus aureus [11]): 25 mg/L (≈ 40.7 µM)
CO/N=C(/C(=O)N[C@@H]1C(=O)N2C(C(=O)[O-])=C(C[n+]3cccc(-c4cc(C)[nH]n4)c3)CS[C@H]12)c1csc(N)n1 | 0.007 (≈ 0.0126 µM) | 0.781 (≈ 1.41 µM) | 3.12 (≈ 5.63 µM) | 50 (≈ 90.2 µM) | 0.098 (≈ 0.177 µM) | 0.098 (≈ 0.177 µM) | 0.781 (≈ 1.41 µM) | 6.25 (≈ 11.3 µM) | 0.013 (≈ 0.0234 µM) | 3.12 (≈ 5.63 µM) | 0.195 (≈ 0.352 µM) | 0.025 (≈ 0.0451 µM) | 0.098 (≈ 0.177 µM) | 1.56 (≈ 2.82 µM) | 0.007 (≈ 0.0126 µM) | 0.013 (≈ 0.0234 µM) | 0.025 (≈ 0.0451 µM) | 0.049 (≈ 0.0883 µM) | 0.781 (≈ 1.41 µM) | 1.56 (≈ 2.82 µM) | MIC (Staphylococcus aureus [11]): 25 mg/L (≈ 45.1 µM)
